This is an account of results in ChEMBL document CHEMBL4359846, “Design, synthesis, and antifibrosis evaluation of 4-(benzo-[c][1,2,5]thiadiazol-5-yl)-3(5)-(6-methyl- pyridin-2-yl)pyrazole and 3(5)-(6-methylpyridin- 2-yl)-4-(thieno-[3,2,-c]pyridin-2-yl)pyrazole derivatives” (Eur J Med Chem, 2019).

Data set [1] addresses T1, Mitogen-activated protein kinase 14 (Homo sapiens, UniProt Q16539). In words: Inhibition of human recombinant untagged p38alpha expressed in Escherichia coli at 10 uM using ATF2 as substrate incubated for 60 mins in presence of [33P]-ATP by radiometric assay relative to control.
A further data set concerns the target T2, TGF-beta receptor type-1 (Homo sapiens, UniProt P36897).
T2 sequence (P36897 whole entry): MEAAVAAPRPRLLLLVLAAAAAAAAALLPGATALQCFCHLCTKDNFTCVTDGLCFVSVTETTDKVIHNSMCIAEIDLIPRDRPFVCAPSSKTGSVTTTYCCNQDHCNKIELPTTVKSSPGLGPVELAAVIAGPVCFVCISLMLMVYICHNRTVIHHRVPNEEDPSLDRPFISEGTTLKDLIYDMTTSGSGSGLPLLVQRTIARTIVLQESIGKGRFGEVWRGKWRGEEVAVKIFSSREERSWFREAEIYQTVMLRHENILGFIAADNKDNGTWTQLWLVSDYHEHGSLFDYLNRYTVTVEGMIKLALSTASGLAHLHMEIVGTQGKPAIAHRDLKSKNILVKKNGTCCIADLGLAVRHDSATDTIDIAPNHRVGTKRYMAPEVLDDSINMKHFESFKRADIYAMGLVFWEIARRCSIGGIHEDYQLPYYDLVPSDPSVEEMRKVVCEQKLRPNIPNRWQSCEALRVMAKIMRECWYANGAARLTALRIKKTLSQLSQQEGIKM
In words: Inhibition of human recombinant GST-tagged ALK5 expressed in Sf9 insect cells using casein as substrate incubated for 60 mins in presence of [33P]-ATP by radiometric assay.

In data set [2] the target is T1, Mitogen-activated protein kinase 14. In words: Inhibition of human recombinant untagged p38alpha expressed in Escherichia coli using ATF2 as substrate incubated for 60 mins in presence of [33P]-ATP by radiometric assay.
Data set [3] is described as follows: Cytotoxicity against human LX2 cells assessed as reduction in cell viability at 4 to 100 uM incubated for 3 hrs by MTT assay. It is filed as cell-based.
Data set [4] concerns the target T3, TGF-beta receptor type-1 (Homo sapiens) (UniProt P36897).
T3 sequence (whole entry): T2 sequence (P36897 whole entry)
In words: Inhibition of human recombinant GST-tagged ALK5 expressed in Sf9 insect cells at 10 uM using casein as substrate incubated for 60 mins in presence of [33P]-ATP by radiometric assay relative to control.

T1 sequence (Q16539 whole entry): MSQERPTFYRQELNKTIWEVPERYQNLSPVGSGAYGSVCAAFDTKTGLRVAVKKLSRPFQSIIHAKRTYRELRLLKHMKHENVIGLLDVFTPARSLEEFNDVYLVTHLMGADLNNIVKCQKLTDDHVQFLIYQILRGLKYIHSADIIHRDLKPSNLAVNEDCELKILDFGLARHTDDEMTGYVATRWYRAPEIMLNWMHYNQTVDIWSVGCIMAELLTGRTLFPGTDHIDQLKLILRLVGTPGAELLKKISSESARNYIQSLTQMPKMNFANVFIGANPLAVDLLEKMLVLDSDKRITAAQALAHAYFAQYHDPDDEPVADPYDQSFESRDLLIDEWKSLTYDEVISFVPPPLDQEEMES

One may read the inhibition as the share of the control response that was lost under treatment. Broadly, the IC50 is the concentration needed to halve the response being measured. Consider `Cc1cccc(-c2nn(CC(=S)Nc3cccc(F)c3)cc2-c2ccc3nsnc3c2)n1`, for which the inhibition in data set [1] lay within 0 to 66%. Further, the 50% inhibitory concentration (IC50) was 30 nM on TGF-beta receptor type-1 and 7040 nM in data set [2]. The Activity result in data set [3] was “Toxic”.

Regarding `Cc1cccc(-c2nn(CC(=S)Nc3cccc(C#N)c3)cc2-c2cc3cnccc3s2)n1`, in data set [1], the inhibition lay within 0 to 66%. Moreover, the IC50 amounted to 78 nM at TGF-beta receptor type-1 and 9460 nM in data set [2].

`Cc1cccc(-c2nn(CC(=S)Nc3cccc(C#N)c3)cc2-c2ccc3nsnc3c2)n1`: the inhibition in data set [1] was 0 to 66%. The results for the IC50 (on TGF-beta receptor type-1; in data set [2]) were 116 nM and more than 10000 nM, respectively.

Take `Cc1cccc(-c2nn(CC(=O)Nc3cccc(F)c3)cc2-c2cc3cnccc3s2)n1`: the inhibition lay within 98 to 100% in data set [4] and 0 to 66% in data set [1]. In addition, the figures for the IC50 (on TGF-beta receptor type-1; in data set [2]) were 119 nM and more than 10000 nM, respectively.

As to `Cc1cccc(-c2nn(CC(=O)Nc3cccc(F)c3)cc2-c2ccc3nsnc3c2)n1`, the figures for the inhibition in data set [4] and in data set [1] were 98 to 99% and 0 to 66%, respectively. The IC50 is 87 nM on TGF-beta receptor type-1 and more than 10000 nM in data set [2].

`Cc1cccc(-c2nn(CC(=S)Nc3cccc(F)c3)cc2-c2cc3cnccc3s2)n1`: the inhibition in data set [1] fell in the range of 0 to 66%. Further, the results for the IC50 (at TGF-beta receptor type-1; in data set [2]) were 125 nM and more than 10000 nM, respectively.

On to `Cc1cccc(-c2nn(CC(=O)Nc3cccc(C#N)c3)cc2-c2cc3cnccc3s2)n1`, for which the inhibition in data set [4] lay within 98 to 100%; in data set [1], 0 to 66%. Besides, the figures for the IC50 (at TGF-beta receptor type-1; in data set [2]) were 230 nM and more than 10000 nM, respectively.

As for `Cc1cccc(-c2nn(CC(=O)Nc3cccc(C#N)c3)cc2-c2ccc3nsnc3c2)n1`, the inhibition in data set [4] lay in the range of 98 to 99%; in data set [1], 0 to 66%. In addition, the figures for the IC50 (at TGF-beta receptor type-1; in data set [2]) were 165 nM and more than 10000 nM, respectively.

Turning to `Cc1cccc(-c2nn(CC(=O)Nc3ccccc3F)cc2-c2cc3cnccc3s2)n1`, the inhibition in data set [4] fell in the range of 98 to 100%; in data set [1], 0 to 66%. In addition, the IC50 at TGF-beta receptor type-1 is 312 nM; in data set [2], more than 10000 nM.

Consider `Cc1cccc(-c2c(-c3ccc4nsnc4c3)cnn2CC(=O)Nc2cccc(C#N)c2)n1`, for which the inhibition was 52 to 98% in data set [4] and 0 to 66% in data set [1].

As for `Cc1cccc(-c2c(-c3cc4cnccc4s3)cnn2CC(=O)Nc2cccc(C#N)c2)n1`, the results for the inhibition in data set [4] and in data set [1] were 46 to 91% and 0 to 66%, respectively.

For `Cc1cccc(-c2c(-c3ccc4nsnc4c3)cnn2CC(=O)Nc2cccc(F)c2)n1`, the inhibition in data set [4] was 52 to 98%; in data set [1] it was 0 to 66%.

Regarding `Cc1cccc(-c2c(-c3cc4cnccc4s3)cnn2CC(=O)Nc2cccc(F)c2)n1`, the inhibition in data set [4] lay in the range of 46 to 91%; in data set [1] it was 0 to 66%.

As to `Cc1cccc(-c2nn(CC(=O)Nc3ccccc3)cc2-c2ccc3nsnc3c2)n1`, the inhibition in data set [4] lay within 98 to 99%; in data set [1], 0 to 66%. Also, the results for the IC50 (on TGF-beta receptor type-1; in data set [2]) were 30 nM and more than 10000 nM, respectively.

Take `Cc1cccc(-c2nn(CC(=O)Nc3ccccc3F)cc2-c2ccc3nsnc3c2)n1`: the inhibition is 98 to 99% in data set [4] and 0 to 66% in data set [1]. For the same molecule, the IC50 was 168 nM at TGF-beta receptor type-1 and more than 10000 nM in data set [2].

Consider `Cc1cccc(-c2c(-c3cc4cnccc4s3)cnn2CC(=O)Nc2ccccc2)n1`, for which the figures for the inhibition in data set [4] and in data set [1] were 46 to 91% and 0 to 66%, respectively.

As to `Cc1cccc(-c2c(-c3ccc4nsnc4c3)cnn2CC(=O)Nc2ccccc2)n1`, the inhibition in data set [4] fell in the range of 52 to 98%; in data set [1] it was 0 to 66%.

Regarding `Cc1cccc(-c2nn(CC(=O)Nc3ccccc3)cc2-c2cc3cnccc3s2)n1`, the inhibition in data set [1] was 0 to 66%. Moreover, the IC50 came out at 39 nM on TGF-beta receptor type-1 and 8120 nM in data set [2]. Further, the Activity entry in data set [3] is recorded as “Non-Toxic”.

`Cc1cccc(-c2c(-c3cc4cnccc4s3)cnn2CC(=O)Nc2ccccc2F)n1`: the values for the inhibition in data set [4] and in data set [1] were 46 to 91% and 0 to 66%, respectively.

As to `Cc1cccc(-c2nn(CC(=S)Nc3ccccc3F)cc2-c2ccc3nsnc3c2)n1`, the inhibition in data set [1] fell in the range of 0 to 66%. The IC50 at TGF-beta receptor type-1 came out at 55 nM; in data set [2] it was 3800 nM.

Consider `Cc1cccc(-c2nn(CC(=S)Nc3ccccc3)cc2-c2ccc3nsnc3c2)n1`, for which the inhibition in data set [1] lay in the range of 0 to 66%. Also, the IC50 at TGF-beta receptor type-1 is 42 nM; in data set [2], 5800 nM.

In the case of `Cc1cccc(-c2c(-c3ccc4nsnc4c3)cnn2CC(=O)Nc2ccccc2F)n1`, the inhibition in data set [4] was 52 to 98%; in data set [1], 0 to 66%.
